Values of other authors in patent US9877959B2, “Pharmaceutical composition containing palonosetron” (SAMYANG BIOPHARMACEUTICALS CORPORATION, priority 2013, dated 2018).

Experiments:
[1] = in vivo
5-HT3 receptor = target: T1, 5-HT3 receptor (Homo sapiens, UniProt P46098); settings: relative to first-generation 5-HT3 receptor antagonists
T1 sequence (P46098 24-478): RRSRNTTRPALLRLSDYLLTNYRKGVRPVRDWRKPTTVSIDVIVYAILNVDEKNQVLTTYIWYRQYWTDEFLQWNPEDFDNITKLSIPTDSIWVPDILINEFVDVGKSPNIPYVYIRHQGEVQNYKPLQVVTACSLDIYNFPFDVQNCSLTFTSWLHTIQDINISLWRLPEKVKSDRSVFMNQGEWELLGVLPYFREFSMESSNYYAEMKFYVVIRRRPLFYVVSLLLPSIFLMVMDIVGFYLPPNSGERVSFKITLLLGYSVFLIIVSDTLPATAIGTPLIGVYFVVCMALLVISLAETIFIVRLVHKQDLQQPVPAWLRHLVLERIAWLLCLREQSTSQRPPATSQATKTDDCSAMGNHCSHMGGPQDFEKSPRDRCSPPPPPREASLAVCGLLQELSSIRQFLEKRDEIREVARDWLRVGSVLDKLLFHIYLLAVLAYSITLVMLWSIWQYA

O=C1c2cccc3c2C(CCC3)CN1C1CN2CCC1CC2 (stereo in doubt) [palonosetron, (3aS)-2-[(3S)-1-azabicyclo[2.2.2]oct-3-yl]-2,3,3a,4,5,6-hexahydro-1H-benz[de]isoquinolin-1-one]
half-life [1]: ≥ 40 h | inhibitory effect on delayed vomiting, higher than that of other first-generation 5-HT3 receptor antagonists (5-HT3 receptor): 10 times
